Test results as given in patent publication US9693556B2, “Herbicidal pyridazinone derivatives” (SYNGENTA LIMITED, priority 2011, dated 2017).

What was measured:
Assay type in all cases: in vivo
[1] = tested on: Alopecurus myosuroides (ALOMY); test: Pre-emergence herbicidal glasshouse test on Alopecurus myosuroides; settings: pre-emergence; 1000 g/h; evaluated after 13 days
Summary of the method: (§1)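 Scoring scale: 5=80-100%, 4=60-79%, 3=40-59%, 2=20-39%, 1=0-19% damage, assessed on day 13. Compound sprayed at 1000 g/h on soil-grown plants (day 1 pre-, day 8 post-emergence) kept at 24/16 °C, 14 h light.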

Setaria faberi (SETFA) [2] = test: Pre-emergence herbicidal glasshouse test on Setaria faberi; settings: pre-emergence; 1000 g/h; evaluated after 13 days
Summary of the method: as §1

[3] = tested on: Echinochloa crus-galli (ECHCG); test: Pre-emergence herbicidal glasshouse test on Echinochloa crus-galli; settings: pre-emergence; 1000 g/h; evaluated after 13 days
Summary of the method: as §1

Solanum nigrum (SOLNI) [4] = test: Pre-emergence herbicidal glasshouse test on Solanum nigrum; settings: pre-emergence; 1000 g/h; evaluated after 13 days
Summary of the method: as §1

[5] = tested on: Amaranthus retoflexus (AMARE); test: Pre-emergence herbicidal glasshouse test on Amaranthus retoflexus; settings: pre-emergence; 1000 g/h; evaluated after 13 days
Summary of the method: as §1

[6] = tested on: Ipomoea hederacea (IPOHE); test: Pre-emergence herbicidal glasshouse test on Ipomoea hederacea; settings: pre-emergence; 1000 g/h; evaluated after 13 days
Summary of the method: as §1

[7] = tested on: Alopecurus myosuroides (ALOMY); test: Post-emergence herbicidal glasshouse test on Alopecurus myosuroides; settings: post-emergence; 1000 g/h; evaluated after 13 days
Summary of the method: as §1

Setaria faberi (SETFA) [8] = test: Post-emergence herbicidal glasshouse test on Setaria faberi; settings: post-emergence; 1000 g/h; evaluated after 13 days
Summary of the method: as §1

[9] = tested on: Echinochloa crus-galli (ECHCG); test: Post-emergence herbicidal glasshouse test on Echinochloa crus-galli; settings: post-emergence; 1000 g/h; evaluated after 13 days
Summary of the method: as §1

Solanum nigrum (SOLNI) [10] = test: Post-emergence herbicidal glasshouse test on Solanum nigrum; settings: post-emergence; 1000 g/h; evaluated after 13 days
Summary of the method: as §1

[11] = tested on: Amaranthus retoflexus (AMARE); test: Post-emergence herbicidal glasshouse test on Amaranthus retoflexus; settings: post-emergence; 1000 g/h; evaluated after 13 days
Summary of the method: as §1

[12] = tested on: Ipomoea hederacea (IPOHE); test: Post-emergence herbicidal glasshouse test on Ipomoea hederacea; settings: post-emergence; 1000 g/h; evaluated after 13 days
Summary of the method: as §1

| Compound | PRE Application ALOMY herbicidal damage (five point scale) [1] | PRE Application SETFA herbicidal damage (five point scale) (Setaria faberi (SETFA) [2]) | PRE Application ECHCG herbicidal damage (five point scale) [3] | PRE Application SOLNI herbicidal damage (five point scale) (Solanum nigrum (SOLNI) [4]) | PRE Application AMARE herbicidal damage (five point scale) [5] | PRE Application IPOHE herbicidal damage (five point scale) [6] | POST Application ALOMY herbicidal damage (five point scale) [7] | POST Application SETFA herbicidal damage (five point scale) (Setaria faberi (SETFA) [8]) | POST Application ECHCG herbicidal damage (five point scale) [9] | POST Application SOLNI herbicidal damage (five point scale) (Solanum nigrum (SOLNI) [10]) | POST Application AMARE herbicidal damage (five point scale) [11] | POST Application IPOHE herbicidal damage (five point scale) [12] |
| --- | --- | --- | --- | --- | --- | --- | --- | --- | --- | --- | --- | --- |
| Cn1ncc(-n2ccc(C(F)(F)F)c(-c3cccc(OC(F)(F)F)c3)c2=O)c(O)c1=O [Compound 7.005] | 4 (4=60-79% damage) | 4 (4=60-79% damage) | 5 (5=80-100% damage) | 5 (5=80-100% damage) | 5 (5=80-100% damage) | 1 (1=0-19% damage) | 4 (4=60-79% damage) | 4 (4=60-79% damage) | 5 (5=80-100% damage) | 5 (5=80-100% damage) | 5 (5=80-100% damage) | 4 (4=60-79% damage) |
| Cc1ccc(S(=O)(=O)Oc2c(-c3ccc(C(F)(F)F)cc3S(C)(=O)=O)cnn(C)c2=O)cc1 [Compound 3.006, [2-methyl-5-[2-methylsulfonyl-4-(trifluoromethyl)phenyl]-3-oxo-pyridazin-4-yl]4-methylbenzenesulfonate] | 5 (5=80-100% damage) | 5 (5=80-100% damage) | 5 (5=80-100% damage) | 5 (5=80-100% damage) | 5 (5=80-100% damage) | 4 (4=60-79% damage) | 5 (5=80-100% damage) | 5 (5=80-100% damage) | 5 (5=80-100% damage) | 5 (5=80-100% damage) | 5 (5=80-100% damage) | 5 (5=80-100% damage) |
| C=C(C)c1ccc(-c2cnn(C)c(=O)c2O)c(S(C)(=O)=O)c1 [Compound 1.140] | 5 (5=80-100% damage) | 1 (1=0-19% damage) | 5 (5=80-100% damage) | 5 (5=80-100% damage) | 5 (5=80-100% damage) | 2 (2=20-39% damage) | 5 (5=80-100% damage) | 3 (3=40-59% damage) | 5 (5=80-100% damage) | 5 (5=80-100% damage) | 5 (5=80-100% damage) | 5 (5=80-100% damage) |
| Cn1nc(N)c(-c2ccc(C(F)(F)F)cc2S(C)(=O)=O)c(O)c1=O [Compound 2.039] | 5 (5=80-100% damage) | 5 (5=80-100% damage) | 5 (5=80-100% damage) | 5 (5=80-100% damage) | 5 (5=80-100% damage) | 5 (5=80-100% damage) | 5 (5=80-100% damage) | 5 (5=80-100% damage) | 5 (5=80-100% damage) | 5 (5=80-100% damage) | 5 (5=80-100% damage) | 5 (5=80-100% damage) |
| C=C(C)c1nn(C)c(=O)c(O)c1-c1ccc(S(C)(=O)=O)c(C2=NOCC2)c1C [Compound 2.023] | 5 (5=80-100% damage) | 1 (1=0-19% damage) | 5 (5=80-100% damage) | 5 (5=80-100% damage) | 5 (5=80-100% damage) | 4 (4=60-79% damage) | 5 (5=80-100% damage) | 5 (5=80-100% damage) | 5 (5=80-100% damage) | 5 (5=80-100% damage) | 5 (5=80-100% damage) | 5 (5=80-100% damage) |
| Cn1ncc(-n2ccc3ccccc3c2=O)c(O)c1=O [Compound 1.069] | 1 (1=0-19% damage) | 2 (2=20-39% damage) | 5 (5=80-100% damage) | 2 (2=20-39% damage) | 2 (2=20-39% damage) | 4 (4=60-79% damage) | 2 (2=20-39% damage) | 1 (1=0-19% damage) | 5 (5=80-100% damage) | 4 (4=60-79% damage) | 5 (5=80-100% damage) | 4 (4=60-79% damage) |
| COC(=O)Oc1c(-c2ccc(C(F)(F)F)cc2S(C)(=O)=O)cnn(C)c1=O [Compound 3.003, Methyl [2-methyl-5-[2-methylsulfonyl-4-(trifluoromethyl)phenyl]-3-oxo-pyridazin-4-yl]carbonate] | 5 (5=80-100% damage) | 5 (5=80-100% damage) | 5 (5=80-100% damage) | 5 (5=80-100% damage) | 5 (5=80-100% damage) | 5 (5=80-100% damage) | 5 (5=80-100% damage) | 5 (5=80-100% damage) | 5 (5=80-100% damage) | 5 (5=80-100% damage) | 5 (5=80-100% damage) | 5 (5=80-100% damage) |
| Cc1cc(C#N)ccc1-c1cnn(C)c(=O)c1O [Compound 1.084] | 1 (1=0-19% damage) | 1 (1=0-19% damage) | 1 (1=0-19% damage) | 1 (1=0-19% damage) | 1 (1=0-19% damage) | 1 (1=0-19% damage) | 1 (1=0-19% damage) | 2 (2=20-39% damage) | 3 (3=40-59% damage) | 4 (4=60-79% damage) | 4 (4=60-79% damage) | 4 (4=60-79% damage) |
| Cn1ncc(-c2ccc(C(F)(F)F)nc2S(=O)(=O)N2CCOCC2)c(O)c1=O [Compound 4.016] | 5 (5=80-100% damage) | 5 (5=80-100% damage) | 5 (5=80-100% damage) | 5 (5=80-100% damage) | 5 (5=80-100% damage) | 5 (5=80-100% damage) | 5 (5=80-100% damage) | 5 (5=80-100% damage) | 5 (5=80-100% damage) | 5 (5=80-100% damage) | 5 (5=80-100% damage) | 5 (5=80-100% damage) |
| COc1nc(C(F)(F)F)ccc1-c1cnn(C)c(=O)c1O [Compound 4.005] | 1 (1=0-19% damage) | 1 (1=0-19% damage) | 1 (1=0-19% damage) | 1 (1=0-19% damage) | 5 (5=80-100% damage) | 1 (1=0-19% damage) | 1 (1=0-19% damage) | 1 (1=0-19% damage) | 1 (1=0-19% damage) | 3 (3=40-59% damage) | 5 (5=80-100% damage) | 2 (2=20-39% damage) |
